Experimental data taken from US6846933B1, “Antimycobacterial compounds and method for making the same” (priority 2000, dated 2005).
≈ marks a conversion by molar mass, not a printed value. Where two headings read alike, the source gives them in different places.

Legend:
[1] = test system: M. tuberculosis strain resistant to isoniazid (ATCC 35822); assay: microbe, parasite or virus in culture; format: cell-based; conditions: Mycobacterium tuberculosis
[2] = test system: M. tuberculosis strain resistant to rifampin (ATCC 35838); assay: microbe, parasite or virus in culture; format: cell-based; conditions: Mycobacterium tuberculosis
[3] = ATCC35822, read-out: MIC INH-R (ug/ml)
[4] = ATCC35838, read-out: MIC RMP-R (ug/ml)

SMILES | MIC ([1]; ATCC35822, read-out: MIC of RMP vs INH-R (Comment, Table 9)) [µg/mL] | MIC ([2]; ATCC35838, read-out: MIC of RMP vs RMP-R (Comment, Table 9)) [µg/mL] | MIC [1, 3] [µg/mL] | MIC [2, 4] [µg/mL]
CO[C@H]1/C=C/O[C@@]2(C)Oc3c(C)c(O)c4c(O)c(c(/C=N/N5CCN(C)CC5)c(O)c4c3C2=O)NC(=O)/C(C)=C\C=C\[C@H](C)[C@H](O)[C@@H](C)[C@@H](O)[C@@H](C)[C@H](OC(C)=O)[C@@H]1C [RMP, rifampin, reference compound] | 0.5 | > 8 |  | 
CC(C)=CCCC(C)C/C=N/NC(=O)c1ccncc1 (stereo not shown) [Sample ID 102044] |  |  | 3.13 (≈ 11.4 µM) | < 0.1
COc1ccc(/C=N/NC(=O)c2ccncc2)cc1 [Sample ID 102866] |  |  | 3.25 (≈ 12.7 µM) | < 0.05
O=C(NN=C1CCCC1)c1ccncc1 [Sample ID 111298] |  |  | > 0.75 | 0.05 (≈ 0.246 µM)
CC1C/C(=N/NC(=O)c2ccncc2)CC(C)(C)C1 (stereo not shown) [Sample ID 114353] |  |  | < 6.25 | < 0.1
O=C(N/N=C/c1cc(Cl)ccc1Cl)c1ccncc1 [Sample ID 117150] |  |  | > 3.25 | < 0.05
CCOC(=O)/C(CCc1ccccc1)=N\NC(=O)c1ccncc1 [Sample ID 132358] |  |  | > 3.2 | 0.1 (≈ 0.307 µM)
O=C(N/N=C/C=C(c1ccccc1)c1ccccc1)c1ccncc1 [Sample ID 132532] |  |  | > 3.2 | 0.1 (≈ 0.305 µM)
